Data published in paper PMC12563431, “The Esc(1-21)-1c Antimicrobial Peptide Inhibits a Specific Transcriptional Activator of the MexAB–OprM Efflux Pump in P. aeruginosa” (International Journal of Molecular Sciences, 2025).
Where no end group is shown, it is not given here. [ ]: non-standard residue; d: D form.

B1: His6-Q9I5H3 (natural protein)
chain: MRILLVEDHPQLAESVVQALKGAGWTVDLLQDGVAADLALASEEYALAILDVGLPRMDGFEVLARLRGRGKTLPVLMLTARGEVKDRVHGLNLGADDYLAKPFELSELEARVKALLRRSVLGGEQLQRCGALVYDLGTRRFSLDEQPLTLTSREQAVLEAMIARPGRVMSKEQLAAQVFGLDEEASADAIEIYVHRLRKKLEGGAVRIVTFRGLGYLLEAQGD
notes: also called recombinant Q9I5H3 protein; PA0756; source: E. coli BL21 (pET28a), purified (His-Trap FF IMAC; gel filtration on Superdex 75)

How the values were obtained:
Q9I5H3–DNA complex = test: EMSA competition assay, Q9I5H3 binding to MexAB–OprM promoter DNA duplex; type: biochemical, P. aeruginosa; details: 30 μM Q9I5H3 pre-incubated with peptide (50 to 250 μM) 10 min at 25 °C, then 0.05 µM target DNA duplex for 20 min; 1.5% agarose gel, GelRed
Protocol: The putative effect of the Esc(1-21)-1c peptide on the Q9I5H3–DNA interaction was investigated by a competition assay in which the recombinant Q9I5H3 protein was pre-incubated with increasing concentrations of the peptide before adding the DNA probe. The protein–DNA complexes in the presence of different concentrations of Esc(1-21)-1c were again examined by EMSA.
The interaction of Q9I5H3 protein with DNA was investigated by EMSA experiments using the target DNA duplex as well as a control duplex-forming sequence generally used as a model of standard B-DNA duplex, the so-called Dickerson dodecamer (Supplementary Table S1). Sense and antisense oligonucleotides were annealed by incubation at 95 °C for 5 min and then gradual cooling to room temperature. Different concentrations of proteins were incubated with the DNA duplexes (0.05 µM) for 30 min at 25 °C in 20 µL of 25 mM HEPES pH 7.6, containing 50 mM KCl, 12.5 mM MgCl2, 1 mM DTT, 20% glycerol, 0.1% Triton.
For the assays, 30 μM of protein was pre-incubated with increasing concentrations of Esc(1-21)-1c for 10 min at 25 °C. Following this pre-incubation, the DNA duplex was added, and the mixture was incubated for additional 20 minutes under standard EMSA conditions.
All samples were separated on 1.5% agarose gel in Tris-borate-EDTA (TBE) running buffer at room temperature, using GelRed as dye. […]

P. aeruginosa = details: levels below the MIC; cited from earlier work
Excerpt: (§1) In the past years, we characterized the biological properties of a derivative of the frog-skin AMP esculentin-1a, namely Esc(1-21)-1c of sequence GIFSKLAGKKIKN^dLLI^dSGLKG-NH2 containing two D-amino acids, i.e., Leu14 and Ser17. […] Furthermore, very recent studies have provided new insights into the global impact of Esc (1-21)-1c on P. ...

P. aeruginosa biofilm = details: levels below the MIC; cited from earlier work
Excerpt: as §1

Q9I5H3 = test: Fluorescence binding titration of Q9I5H3 dimer with Esc(1-21)-1c; parameters: species or system P. aeruginosa; details: intrinsic protein fluorescence, λexc 280 nm, emission 337 nm; 35 μM Q9I5H3 dimer, peptide 1.5 to 50 µM; 50 mM Tris-HCl pH 8.0, 150 mM NaCl, 20 °C; duplicate; one site specific binding fit; read-out: dissociation constant of the Esc(1-21)-1c–Q9I5H3 complex
Protocol: The interaction of the Esc(1-21)-1c peptide with Q9I5H3 was experimentally evaluated by fluorescence-based binding experiments. The dimeric form of the Q9I5H3 protein, purified by gel filtration, was titrated with increasing concentrations of Esc(1-21)-1c, and changes in the fluorescence emission of the protein were monitored (Figure 5).
Fluorescence experiments were performed on a Fluoromax-4 spectrofluorometer from Horiba Scientific, Piscataway, NJ, USA, using 1 cm optical path-length quartz cell under controlled temperature conditions (Peltier control system at 20 °C). Titrations were carried out in 50 mM Tris-HCl, pH 8.0 and 150 mM NaCl. Excitation wavelength used for the fluorescence titrations was 280 nm, and the spectra were recorded in the range 300–500 nm (slit 3 nm). Titrations were carried out at a fixed concentration (35 μM) of Q9I5H3 by adding increasing amounts of Esc(1-21)-1c peptide (from 1.5 to 50 µM), and the fluorescence emission was monitored at 337 nm. The experiments were performed in duplicate. The change in the fluorescence intensity was reported as a function of the peptide concentration and the data fitted with the “one site specific binding” equation of GraphPad Prism 9 (GraphPad Software LLC, La Jolla, CA, USA).

[1] = test system: MexA, MexB, and OprM proteins; details: sub-MIC dosages; cited from earlier work
Excerpt: In the past years, we characterized the biological properties of a derivative of the frog-skin AMP esculentin-1a, namely Esc(1-21)-1c of sequence GIFSKLAGKKIKN^dLLI^dSGLKG-NH2 containing two D-amino acids, i.e., Leu14 and Ser17. […] Therefore, in-depth investigations are imperative to unravel the specific molecular mechanisms accounting for the downregulation of MexAB efflux pump by Esc(1-21)-1c. Here, we explored the intracellular mechanism of Esc(1-21)-1c at the molecular level by the identification of its putative interactors in P. aeruginosa. Functional proteomics approaches allowed us to ident ...

His6-Q9I5H3 = molecular target: B1; test: other fluorescence titration; intrinsic protein fluorescence (excitation 280 nm, emission 337 nm); 35 μM Q9I5H3 (dimeric form from gel filtration) fixed, Esc(1-21)-1c added from 1.5 to 50 µM; 50 mM Tris-HCl pH 8.0, 150 mM NaCl, 20 °C; duplicate; one site specific binding fit; details: both partners purified
[2] = molecular target: the molecule itself; test: SEC; Superdex 75 10/300 GL calibrated with standard proteins; 50 mM Tris-HCl pH 8.0, 150 mM NaCl; peaks at 7.8 mL and 11.5 mL; monomer and dimer
[3] = molecular target: T1, Q9I5H3 (probable two-component response regulator, QseB homolog) (Pseudomonas aeruginosa, UniProt Q9I5H3 1-223); test: EMSA; protein 5-70 uM, DNA 0.05 uM; details: protein: recombinant; tags: N-terminal His6 (pET28a); chain copies: 2; label: none (GelRed stain); blunt
T1 sequence: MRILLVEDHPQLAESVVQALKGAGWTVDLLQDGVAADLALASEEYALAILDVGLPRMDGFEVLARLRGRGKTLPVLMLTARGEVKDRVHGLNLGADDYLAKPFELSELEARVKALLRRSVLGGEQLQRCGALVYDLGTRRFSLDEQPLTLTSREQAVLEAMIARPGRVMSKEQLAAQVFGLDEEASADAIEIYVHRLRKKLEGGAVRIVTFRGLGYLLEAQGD

Molecule: GIFSKLAGKKIKN^dLLI^dSGLKG-NH2 [Esc(1-21)-1c, derivative of the frog-skin AMP esculentin-1a containing two D-amino acids, Leu14 and Ser17]
- peptide concentration at which the shifted Q9I5H3–DNA complex band completely disappeared (Q9I5H3–DNA complex): 200 µM
- effect with the antibiotic Aztreonam in inhibiting growth and killing P. aeruginosa (P. aeruginosa): synergic effect
- effect on P. aeruginosa biofilm formation (P. aeruginosa biofilm): capability to prevent P. aeruginosa biofilm formation
- Kd (Q9I5H3): 10 ± 0.98 µM
- effect on MexA, MexB, and OprM proteins [1]: significant downregulatory effect

Molecule: GIFSKLAGKKIKN[dL]LI[dS]GLKG-NH2 (also called Esc(1-21)-1c peptide; AMP) [Esc(1-21)-1c]
- Kd (His6-Q9I5H3): 10 ± 0.98 µM

Molecule: B1
- stoichiometry N [2]: 2

B2: MexAB-OprM (MexA) promoter target duplex (dsDNA)
DNA 1: CGAGTAAACCTAATGTAAATGTGGTTGATC
DNA 2: GATCAACCACATTTACATTAGGTTTACTCG
- binding result [3]: binds
